Three molecules from article PMC8878317, “Chemogenomics identifies acetyl-coenzyme A synthetase as a target for malaria treatment and prevention” (Cell Chemical Biology, 2022) can be followed below.

One test has as its target T1, PfAcAS A597V (Plasmodium falciparum, UniProt C6KTB4, A597V).
T1 sequence (C6KTB4 1-997 A597V): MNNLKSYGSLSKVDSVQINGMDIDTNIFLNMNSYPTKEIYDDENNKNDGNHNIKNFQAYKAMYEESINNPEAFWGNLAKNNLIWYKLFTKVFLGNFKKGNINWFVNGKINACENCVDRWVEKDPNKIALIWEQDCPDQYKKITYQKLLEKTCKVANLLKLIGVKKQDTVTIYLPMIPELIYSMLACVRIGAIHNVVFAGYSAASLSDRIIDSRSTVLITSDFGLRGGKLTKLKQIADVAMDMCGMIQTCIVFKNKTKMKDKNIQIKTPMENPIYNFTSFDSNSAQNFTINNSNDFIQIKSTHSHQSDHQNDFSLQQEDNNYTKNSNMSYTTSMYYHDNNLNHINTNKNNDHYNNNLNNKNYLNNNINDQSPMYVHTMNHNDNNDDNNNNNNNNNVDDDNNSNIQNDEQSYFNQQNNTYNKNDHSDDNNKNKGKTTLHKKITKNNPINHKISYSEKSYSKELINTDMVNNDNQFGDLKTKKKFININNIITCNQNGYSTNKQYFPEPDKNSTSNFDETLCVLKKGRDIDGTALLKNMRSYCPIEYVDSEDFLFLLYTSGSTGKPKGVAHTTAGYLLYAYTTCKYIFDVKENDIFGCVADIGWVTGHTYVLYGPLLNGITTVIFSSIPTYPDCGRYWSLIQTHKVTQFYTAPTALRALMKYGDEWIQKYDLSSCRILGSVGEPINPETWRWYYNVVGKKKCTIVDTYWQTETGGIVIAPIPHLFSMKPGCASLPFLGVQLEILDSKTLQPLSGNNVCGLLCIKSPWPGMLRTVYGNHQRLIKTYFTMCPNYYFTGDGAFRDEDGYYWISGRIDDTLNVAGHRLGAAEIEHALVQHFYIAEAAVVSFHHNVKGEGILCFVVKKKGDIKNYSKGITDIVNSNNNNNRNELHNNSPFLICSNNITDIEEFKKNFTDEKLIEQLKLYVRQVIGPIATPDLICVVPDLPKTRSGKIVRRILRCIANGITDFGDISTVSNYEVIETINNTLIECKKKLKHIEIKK
As to the kind of experiment: EnzChek assay, recombinant PfAcAS A597V. It is filed as biochemical, P. falciparum. The following applies: substrate varied, other two saturating. The procedure: (§1) Steady-state kinetic measurements were conducted at room temperature using a PheraStar plate reader (BMG). The first step of the reaction of PfAcAS, which produces inorganic pyrophosphate (PPi) that is converted to two molecules of inorganic phosphate using a pyrophosphatase enzyme, was continuously monitored using the EnzChek Phosphate Assay Kit, which gives an absorbance readout at 360 nm (Figure 4A) ([Webb, 1992]). […] By adding CoA, the reaction rapidly proceeds to the second step resulting in further release of pyrophosphate, making the EnzChek assay a suitable option to continuously monitor the activity of PfAcAS. Typical kinetic assays were carried out in clear, flat-bottom, polystyrene, 384-well plates (Greiner) in an 80 μL reaction volume containing 100 mM HEPES (pH7.4), 100 mM NaCl, 250 mM KCl, 50 mM MgCl2, 1 mM DTT, 0.004% Tween 20, 0.5 U/mL pyrophosphatase, 0.1 mM MESG, 0.5 U/mL PNP, 2 mM ATP, 2 mM acetate, 0.5 mM CoA and 5 nM recombinant PfAcAS WT or 10 nM recombinant PfAcAS A597V or T648M. Assays were performed by adding 40 μL of a 2-times concentrated substrate mixture including MESG to all wells, and the reactions started by adding 40 μL of a 2-times concentrated reaction mixture containing all other components. The reactions were carried out for 2 to 4 hr with absorbance readings at 360 nm every two to four minutes. Reaction rates were extracted from the linear phase of activity, usually using 10 to 20 points between times of 30 and 100 min of the reactions. Using a phosphate standard curve obtained under the same buffer conditions used for the PfAcAS reactions (Figure S5A), the rates were then converted to velocity per second, conversion of one nanomolar of phosphate, per nanomolar of enzyme, per second. The substrates Km values were determined by varying the concentration of one of the substrates at saturating concentration of the other two substrates. Steady-state data were fitted using the nonlinear, least-squares, curve-fitting programs of Sigma-Plot for Windows, version 14.0. Individual saturation curves were fit to Equation 1(Equation 1) v=VS/K+S where V is the maximal velocity, S is the substrate concentration and K is the Michaelis constant for the substrate (Km). Individual saturation curves displaying substrate inhibition were fit to Equation 2(Equation 2) v=VS/K+S×(1+S/Ks) where Ks is the substrate inhibition constant.
(§2) To determine the steady-state inhibition parameters and patterns associated with both inhibitors, PfAcAS activity was studied in the presence of variable concentrations of one substrate, ATP, acetate or CoA, fixed saturating concentration of the other two substrates (acetate and CoA, ATP and CoA, or ATP and acetate) and several fixed concentrations of inhibitor. Assay ready plates containing different concentrations of inhibitor were prepared using an Echo 550 acoustic dispenser (Labcyte Inc.). The assays were carried out as described in the previous section. […] For better comparison between both inhibitors and proteins, the ymin was fixed to zero and the ymax to 100. Inhibition data showing linear, competitive patterns in double-reciprocal plots were fit to Equation 4(Equation 4) v=VS/K(1+I/Ki)+S where Ki is the dissociation constant for the enzyme-inhibitor complex. Inhibition data showing linear, mixed inhibition patterns in double-reciprocal plots were fit to Equation 5(Equation 5) v=VS/K(1+I/Kis)+S(1+I/Kii) where Kis is the dissociation constant for the free enzyme-inhibitor complex and Kii is the dissociation constant for the enzyme-substrate-inhibitor complex. Inhibition data showing linear, uncompetitive patterns in double-reciprocal plots were fit to Equation 6(Equation 6) v=VS/K+S(1+I/Ki)

The target of another test is T2, PfAcAS T648M (Plasmodium falciparum, UniProt C6KTB4, T648M).
T2 sequence (C6KTB4 1-997 T648M): T1 sequence (C6KTB4 1-997 A597V)
As to the kind of experiment: EnzChek assay, recombinant PfAcAS T648M. It is filed as biochemical, P. falciparum. The settings on record: substrate varied, other two saturating. The procedure: as §1, §2

For a further test, the target named is PfAcAS WT (Plasmodium falciparum, UniProt C6KTB4). As to the kind of experiment: EnzChek assay, recombinant PfAcAS WT (steady-state kinetics and IC50). It is filed as biochemical, P. falciparum. The procedure: as §1, §2
The target in a further test is T3, HsAcAS WT (Homo sapiens, UniProt Q9NR19).
T3 construct: made in house; host or cells: Expi293 cells (pCDNA 3.1, transient transfection)
T3 sequence (Q9NR19 whole entry): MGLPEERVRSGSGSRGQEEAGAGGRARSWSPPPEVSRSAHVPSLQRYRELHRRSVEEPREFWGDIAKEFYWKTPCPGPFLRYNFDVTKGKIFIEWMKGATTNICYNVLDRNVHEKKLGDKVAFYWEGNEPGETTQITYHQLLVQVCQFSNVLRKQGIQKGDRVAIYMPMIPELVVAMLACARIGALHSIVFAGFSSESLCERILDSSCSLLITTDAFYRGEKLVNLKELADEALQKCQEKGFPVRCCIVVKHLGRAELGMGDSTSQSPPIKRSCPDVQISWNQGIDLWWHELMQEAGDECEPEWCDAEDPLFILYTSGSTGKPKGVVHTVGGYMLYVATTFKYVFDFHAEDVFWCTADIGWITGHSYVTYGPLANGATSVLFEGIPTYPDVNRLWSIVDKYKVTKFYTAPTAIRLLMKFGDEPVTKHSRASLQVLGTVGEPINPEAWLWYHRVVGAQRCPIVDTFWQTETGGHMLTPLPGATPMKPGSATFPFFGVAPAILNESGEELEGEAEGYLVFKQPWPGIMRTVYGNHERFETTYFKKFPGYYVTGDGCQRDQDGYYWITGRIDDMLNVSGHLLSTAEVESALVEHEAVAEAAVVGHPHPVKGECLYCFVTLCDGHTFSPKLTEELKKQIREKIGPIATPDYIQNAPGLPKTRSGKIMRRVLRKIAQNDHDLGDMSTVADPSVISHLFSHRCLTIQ
As to the kind of experiment: HsAcAS Rapid-Fire QQQ mass spectrometry assay. The following applies: for Km: read-out: Km (µM), HsWT. It is filed as biochemical. The procedure: The human form of acetyl-CoA synthetase was assayed in 100 mM HEPES (pH7.4), 100 mM NaCl, 250 mM KCl, 50 mM MgCl2, 1 mM DTT, 0.005% NP40, 400 μM ATP, 70 μM acetate, 40 μM CoA and 2 nM recombinant HsAcAS. Assay ready plates containing different concentrations of inhibitor were prepared using an Echo 550 acoustic dispenser (Labcyte Inc.), dispensing 150 nL of compound per well. Assays were conducted in a total volume of 15 μL for 30 min at room temperature before being quenched with the addition of 85 μL 1% formic acid containing 0.5 μg/mL n-Propionyl coenzyme A (Sigma P5397) as an internal standard. Reaction products were detected using a RapidFire 365 system (Agilent, Santa Clara, CA) coupled with a triple quadrupole mass spectrometer 6740 (Agilent).
The sipper was washed to minimize carryover with 0.1% TFA in deionized water followed by 0.1% TFA in acetonitrile/deionized water (95%/5%, v/v). The sipper was washed to minimize carryover with deionized water followed by acetonitrile. Aspiration time, load/wash time, elution time, and re-equilibration time were set to 600, 3000, 5000, and 500 ms, respectively, with a cycle time of approximately 10 s. The triple-quadrupole mass spectrometer with electrospray ion source was operated in positive multiple reaction monitoring (MRM) mode. The detailed setting for the mass spectrometer parameters was as follows: capillary voltage, 3000 V; gas temperature, 350°C; gas flow, 7 L/min; nebulizer, 40 psi; sheath gas temperature, 300°C′ sheath gas flow, 11 L/min; and nozzle voltage, 1500 V. The MRM transitions for acetyl-CoA as a reaction product were set as 810.1/303.1 & 810.1/428.1 (quantifier & qualifier with dwell time of 50 ms, 100V fragmentor, and collision energies of 30 & 28 eV respectively) and for n-propionyl-CoA as an internal standard as 824.2/317.2 & 824.2/428.0 (quantifier & qualifier with dwell time of 50 ms, 100V fragmentor, and collision energies of 32 & 26 eV respectively). The mass resolution window for both parental and daughter ions was set at as a unit (0.7 Da). Peak areas were integrated, and area ratios of acetyl-CoA to the internal standard (n-propionyl CoA) were used for quantitation. Data were converted to % inhibition relative to the uninhibited enzyme control and fitted to Equation 3.

The mark [1] stands for this setting: substrate varied, other two saturating.

Structures are written as SMILES.

Broadly, the Km is the substrate concentration at which the rate is half of its maximum.

Take `Nc1ncnc2c1ncn2[C@@H]1O[C@H](COP(=O)(O)OP(=O)(O)OP(=O)(O)O)[C@@H](O)[C@H]1O` [ATP]: on PfAcAS A597V, the Km came out at 140 ± 5 µM and the “Vmax (s-1), PfAcAS A597V” value was found to be 0.54 ± 0.01 s⁻¹. Moreover, at PfAcAS T648M, the Km came to 400 ± 17 µM and the “Vmax (s-1), PfAcAS T648M” value came to 1.9 ± 0.03 s⁻¹. Besides, on PfAcAS WT (setting [1]), the Km was 93 µM and the “Vmax (s-1), PfAcAS WT” value was 2.4 ± 0.03 s⁻¹.
For the molecule `CC(C)(COP(=O)(O)OP(=O)(O)OC[C@H]1O[C@@H](n2cnc3c(N)ncnc32)[C@H](O)[C@@H]1OP(=O)(O)O)[C@@H](O)C(=O)NCCC(=O)NCCS` [CoA], the Michaelis constant (Km) worked out at 61 ± 6 µM at PfAcAS A597V, 36 ± 5 µM on HsAcAS WT, 82 ± 6 µM on PfAcAS T648M and 42 µM at PfAcAS WT (setting [1]). Also, the “Vmax (s-1), PfAcAS A597V” value at PfAcAS A597V stood at 0.84 ± 0.05 s⁻¹. For the same molecule, the “Ki (µM), substrate inhibition, HsWT” value at HsAcAS WT (substrate inhibition constant) was 1000 ± 190 µM. Moreover, the “Ki (µM), substrate inhibition, PfAcAS WT” value at PfAcAS WT (substrate inhibition constant) was 2700 ± 310 µM.
Regarding `CC(=O)O` [acetate], the Km at PfAcAS A597V stood at 400 ± 12 µM; at HsAcAS WT, 61 ± 4 µM; on PfAcAS T648M it was 190 ± 8 µM; at PfAcAS WT (setting [1]) it was 72 µM. Further, at PfAcAS A597V, the “Vmax (s-1), PfAcAS A597V” value was determined as 0.54 ± 0.05 s⁻¹.
